Data from US20120252721A1 (priority 2011, published 2012).

What was measured:
in vitro = type: cell-based; conditions: human; GS4.1 cells, cellular viability
Protocol: For cytotoxicity evaluation, GS4.1 cells were treated with compounds as described above and cellular viability was monitored using the Cell Titer 96 AQeous One Solution Cell Proliferation Assay (Promega). CC50 values were determined from the % cytotoxicity versus concentration data with Tecan Magellan software as described above.

[1] = tested on: HCV Con1 subgenomic replicon (GS4.1 cells); test: HCV replicon assay (NS5A ELISA, 72 hrs); type: cell-based; conditions: Hepatitis C virus
Method in brief: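 GS4.1 cells (Huh-7 carrying the Con1 subgenomic replicon) were seeded at 7.5×10^3 cells/well and dosed 3 h later with ten 2-fold dilutions (top 75 μM) or a single 15 μM in 0.5% DMSO, then held 72 h at 37 °C. NS5A was quantified by cell ELISA (mAb A-236, OPD, A492), and EC50s came from four-parameter sigmoidal fits.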

[2] = tested on: HCV genotype 1a replicon, NS5A E295G; test: Luciferase replicon transient transfection assay, genotype 1a NS5A E295G; type: cell-based, hepatitis C virus; conditions: for EC50: Hepatitis C virus, genotype 1a, HCV region NS5A, mutation E295G
Protocol: (§1) The luciferase replicon transient transfection assay measures the ability of a test compound to inhibit the replication of a transiently-transfected HCV luciferase-bearing wild-type or mutant replicon in cured human hepatoma cells (Huh7.5). The inhibition of HCV replication was measured by quantification of luciferase protein expression. This assay has been validated using a panel of genotype 1a and 1b replicons bearing mutations known to be associated with resistance to BMS-790052. Briefly, subconfluent Huh7.5 cells were electroporated with 10 μg of wild-type or mutant luciferase-bearing HCV replicon RNA. The cells were then seeded in 96-well opaque white plates at 3×10^4 cells/well in 150 μL/well and incubated for 4 hrs at 37° C./5% CO2. Ten 1:5 serial dilutions of each test compound were made in media (DMEM containing glucose, L-glutamine and sodium pyruvate, 10% fetal bovine serum, 100 IU/mL penicillin, 100 μg/mL streptomycin, 2 mM GlutaMAX, and 1×MEM non-essential amino acids (Mediatech, Inc. and Invitrogen Corp.)) at concentrations that were 4× higher than the final concentrations to be tested and 50 μL/well was added to the transfected cells. Untreated, mock-transfected cells served as a negative control of luciferase expression. The plates were incubated at 37° C./5% CO2 for 4 days whereupon the media was removed and 50 μL of ONE-glo luciferase substrate (Promega) was added to each well. The plates were agitated on a rotating platform at room temperature for 3 min and read in a Victor^3V microplate reader (Perkin-Elmer) using a 700 nm cut-off filter with a 1 sec read time. EC50 values were calculated from dose response curves from the resulting best-fit equations determined by Microsoft Excel and XLfit 4.1 software.

[3] = tested on: HCV genotype 1b replicon, NS5B M414T; test: Luciferase replicon transient transfection assay, genotype 1b NS5B M414T; type: cell-based, hepatitis C virus
Protocol: The luciferase replicon transient transfection assay measures the ability of a test compound to inhibit the replication of a transiently-transfected HCV luciferase-bearing wild-type or mutant replicon in cured human hepatoma cells (Huh7.5). The inhibition of HCV replication was measured by quantification of luciferase protein expression. This assay has been validated using a panel of genotype 1a and 1b replicons bearing mutations known to be associated with resistance to BMS-790052. Briefly, subconfluent Huh7.5 cells were electroporated with 10 μg of wild-type or mutant luciferase-bearing HCV replicon RNA. The cells were then seeded in 96-well opaque white plates at 3×10^4 cells/well in 150 μL/well and incubated for 4 hrs at 37° C./5% CO2. […] The plates were agitated on a rotating platform at room temperature for 3 min and read in a Victor^3V microplate reader (Perkin-Elmer) using a 700 nm cut-off filter with a 1 sec read time. EC50 values were calculated from dose response curves from the resulting best-fit equations determined by Microsoft Excel and XLfit 4.1 software.
To determine the replication capacity of each mutant relative to the wild-type parental replicon, transfected cells were plated on two plates and were not treated with compound. Luciferase activity was measured at time points of 4 hrs and 4 days after plating for each replicon. […]

[4] = tested on: ZS11-luc R30E (HCV genotype 1b replicon); test: Luciferase replicon transient transfection assay, ZS11-luc R30E; type: cell-based, hepatitis C virus; conditions: for EC50: Hepatitis C virus, 96 h, Huh7.5 cells, 4 days
Protocol: as §1

[5] = tested on: 1a-luc L31M (HCV genotype 1a replicon); test: Luciferase replicon transient transfection assay, 1a-luc L31M; type: cell-based, hepatitis C virus; conditions: for EC50: Hepatitis C virus, 96 h, Huh7.5 cells, 4 days
Protocol: as §1

[6] = tested on: ZS11-luc replicon, NS3-A156T; test: Luciferase replicon transient transfection assay, NS3-A156T; type: cell-based, hepatitis C virus; conditions: for EC50: Hepatitis C virus
Protocol: as §1
To determine the replication capacity of each mutant relative to the wild-type parental replicon, transfected cells were plated on two plates and were not treated with compound. Luciferase activity was measured at time points of 4 hrs and 4 days after plating for each replicon. Replication capacity was calculated by dividing the day 4 CPS by the 4 hour CPS for each replicon and determining the percentage present for each mutant replicon relative to wild-type replicon values. The NS3, NS4B, and NS5B mutants were prepared and tested according to the methods described herein.

[7] = tested on: ZS11-luc L28T (HCV genotype 1b replicon); test: Luciferase replicon transient transfection assay, ZS11-luc L28T; type: cell-based, hepatitis C virus; conditions: for EC50: Hepatitis C virus, 96 h, Huh7.5 cells, 4 days
Protocol: as §1

[8] = tested on: 1a-luc P32L (HCV genotype 1a replicon); test: Luciferase replicon transient transfection assay, 1a-luc P32L; type: cell-based, hepatitis C virus; conditions: for EC50: Hepatitis C virus, 96 h, Huh7.5 cells, 4 days
Protocol: as §1

Structure (SMILES) | CC50 (in vitro) [nM] | EC50 [1] [nM] | EC50 [2] [nM] | Ratio [2] | EC50 ([3]; Hepatitis C virus, genotype 1b, NS5B mutation M414T (confers resistance to Benzothiadiazine)) [nM] | Ratio ([3]; {}) | Ratio [4] | EC50 [4] [nM] | Ratio [5] | EC50 [5] [nM] | EC50 [6] [nM] | Ratio [6] | Ratio [7] | EC50 [7] [nM] | Ratio [8] | EC50 [8] [nM]
COC(=O)N[C@H](C(=O)N1CCC[C@H]1c1ncc(-c2ccc(-c3csc4c(-c5cnc([C@@H]6CCCN6C(=O)[C@@H](NC(=O)OC)C(C)C)[nH]5)csc34)cc2)[nH]1)C(C)C [Compound A15, [(S)-1-((S)-2-{4-[4-(6-{2-[(S)-1-((S)-2-methoxycarbonylamino-3-methyl-butyryl)-pyrrolidin-2-yl]-3H-imidazol-4-yl}-thieno[3,2-b]thiophen-3-yl)-phenyl]-1H-imidazol-2-yl}-pyrrolidine-1-carbonyl)-2-methyl-propyl]-carbamic acid methyl ester] | 10000 to 75000 | < 1 | – | – | – | – | – | – | – | – | – | – | – | – | – | –
COC(=O)N[C@H](C(=O)N1CCC[C@H]1c1ncc(-c2ccc(-c3csc4c(-c5cnc([C@@H]6CCCN6C(=O)[C@H](NC(=O)OC(C)(C)C)c6ccccc6)[nH]5)csc34)cc2)[nH]1)C(C)C [Compound A111, [(S)-1-((S)-2-{4-[4-(6-{(S)-2-[1-((R)-2-tert-butoxycarbonylamino-2-phenyl-acetyl)-pyrrolidin-2-yl]-3H-imidazol-4-yl}-thieno[3,2-b]thiophen-3-yl)-phenyl]-1H-imidazol-2-yl}-pyrrolidine-1-carbonyl)-2-methyl-propyl]-carbamic acid methyl ester] | > 75000 | < 1 | – | – | – | – | – | – | – | – | – | – | – | – | – | –
COC(=O)N[C@H](C(=O)N1CCC[C@H]1c1nc2cc(-c3csc4c(-c5ccc(-c6cnc([C@@H]7CCCN7C(=O)[C@H](NC(=O)OC)c7ccccc7)[nH]6)cc5)csc34)ccc2[nH]1)C(C)C [Compound A169, [(S)-1-((S)-2-{6-[6-(4-{(S)-2-[1-((R)-2-methoxycarbonylamino-2-phenyl-acetyl)-pyrrolidin-2-yl]-3H-imidazol-4-yl}-phenyl)-thieno[3,2-b]thiophen-3-yl]-1H-benzoimidazol-2-yl}-pyrrolidine-1-carbonyl)-2-methyl-propyl]-carbamic acid methyl ester] | – | – | 0.004 | 1.62 | 0.0018 | 1.05 | 1 | 0.003 | 311 | 0.7 | 0.0018 | 1.09 | 73 | 0.2 | 173 | 0.4
COC(=O)N[C@H](C(=O)N1CCC[C@H]1c1ncc(-c2ccc(-c3csc4c(-c5ccc6[nH]c([C@@H]7CCCN7C(=O)[C@H](NC(=O)OC)c7ccccc7)nc6c5)csc34)cc2)[nH]1)C(C)C [Compound A172, [(S)-1-((S)-2-{5-[4-(6-{(S)-2-[1-((R)-2-Methoxycarbonylamino-2-phenyl-acetyl)-pyrrolidin-2-yl]-3H-benzoimidazol-5-yl}-thieno[3,2-b]thiophen-3-yl)-phenyl]-1H-imidazol-2-yl}-pyrrolidine-1-carbonyl)-2-methyl-propyl]-carbamic acid methyl ester] | – | – | 0.006 | 1.67 | – | – | 1 | 0.006 | 378 | 2 | 0.0026 | 1.14 | 63 | 0.2 | 173 | 0.7
